The record followed here is patent US6787650B1, “Urea compounds, process for producing the same and use thereof” (Takeda Chemical Industries, Ltd., priority 1999, dated 2004).

The target in one data set is T1, human CCR5 (Homo sapiens, UniProt P51681).
T1 construct: expressed in transfected cells
In words: Inhibition of [125I]-RANTES binding to CHO/CCR5 cells (CCR5 antagonistic activity). The conditions noted are these: 1.0 μM test compound, 100 pM [125I]-RANTES, room temperature, 40 minutes; for inhibition at 1 µM: read-out: Inhibition Rate (%) at 1.0 μM. As to the method: Cloning of CCR5 gene was carried out by PCR (polymerase chain reaction) from human spleen cDNA. With using 0.5 ng of spleen cDNA (Toyobo, QUICK-Clone cDNA) as a template, PCR was performed in DNA Thermal Cycler 480 (Perkin-Elmer) (reaction conditions: 30 cycles of 95° C. for 1 minute, 60° C. for 1 minute, and 75° C. for 5 minutes) by adding primer set, 5′-[…]-3′ (25 pmol) and 5′-[…]-3′ (25 pmol), which were designed referring to nucleotide sequence of CCR5 gene reported by Samson et al. (Biochemistry, 35 (11), 3362-3367 (1996)) and by using TaKaRa EX Taq (Takara Shuzo). The resultant PCR product was subjected to agarose gel electrophoresis to collect about 1.0 kb DNA fragment, which was subjected to Original TA Cloning Kit (Funakoshi) to carry out cloning of CCR5 gene.
The plasmid obtained in the above (1) was digested with restriction enzymes XbaI (Takara Shuzo) and BamHI (Takara Shuzo) and subjected to agarose gel electrophoresis to collect about 1.0 kb DNA fragment. The DNA fragment was mixed with plasmid pcDNA3.1 (Funakoshi) for expression in animal cells, said plasmid being digested with XbaI and BamHI, and they were ligated with DNA Ligation Kit Ver.2 (Takara Shuzo). The resulting plasmid was subjected to transformation of competent cell of E. coli JM109 (Takara Shuzo) to give plasmid pCKR5.
CHO-K1 cells were grown in 750 ml of tissue culture flask (Becton Dickinson) using Ham's F12 medium (Nihon Pharmaceutical) containing 10% fetal calf serum (Life Tech Oriental) and took off with 0.5 g/L trypsin-0.2 g/L EDTA (Life Tech Oriental). The cells were washed with PBS (Life Tech Oriental), centrifuged (1000 rpm, 5 minutes), and suspended in PBS. With using Gene Pulser (Bio-Rad Laboratories), DNA was introduced into the cells under the conditions shown below. That is, to the cuvette having 0.4 cm gap were added 8×10^6 cells and 10 μg of plasmid pCKR5 for expression of human CCR5, and electroporation was carried out under 0.25 kV of voltage and 960 μF of capacitance. The cells were transferred into Ham's F12 medium containing 10% fetal calf serum, and cultivated for 24 hours. The cells were again took off and centrifuged, and suspended in Ham's F12 medium containing 10% fetal calf serum and 500 μg/ml of geneticin (Life Tech Oriental). The suspension was diluted to give 10^4 cells/ml of the suspension, which was inoculated on 96 well plate (Becton Dickinson) to give geneticin resistant cells.
Then, the resulting geneticin resistant cells were cultivated in 96 well plate (Becton Dickinson), and cells expressing CCR5 were selected from the geneticin resistant cells. That is, in an assay buffer (Ham's F12 medium containing 0.5% BSA and 20 mM HEPES (Wako Pure Chemical, pH 7.2) to which was added 200 pM of [^125I]-RANTES (Amersham) as a ligand, binding reaction was carried out at room temperature for 40 minutes, and the buffer was washed with ice-cooled PBS. To the buffer was added 50 μl/well of 1M NaOH, and the mixture was stirred. Radioactivity was determined with γ-counter to select CHO/CCR5 cells which specifically bound with the ligand.
(4) Evaluation of Test Compounds Based on CCR5 Antagonistic Activity
The CHO/CCR5 were inoculated on 96 well microplate (5×10^4 cells/well) and cultivated for 24 hours. The medium was removed by means of suction, and to each well was added assay buffer containing Test Compound (1 μl) and then 100 pM of [^125I]-RANTES (Amersham) as a ligand. The reaction was carried out at room temperature for 40 minutes, and assay buffer was removed by means of suction. Each well was washed twice with cooled PBS, and 200 μl of Microscinti-20 (Packard Instrument, Inc.) was added to each well. Radioactivity was determined with Top-Count Micro Scintillation Counter (Packard Instrument, Inc.).
According to the method described above, the inhibition rate of the test compounds for CCR5 binding was determined.

A further data set deals with HIV-1 Ba-L. In words: Inhibitory effect on HIV-1 infection to MAGI-CCR5 cell. The class given is cell-based. The conditions noted are these: Human immunodeficiency virus 1, BAL, 48 h; final concentration 0.16 μM; MAGI-CCR5 cells; 300PFU HIV-1 Ba-L; 37° C., 2 days; blue cells counted. As to the method: (5) Inhibitory Effect on HIV-1 Infection to MAGI-CCR5 Cell
The plasmid where β-galactosidase gene was ligated to the downstream of HIV-1 LTR was introduced into CD4 positive HeLa cell, to which human CCR^5 was further introduced to obtain transformant MAGI-CCR5. By using said transformant MAGI-CCR5, the degree of HIV-1 infection was calculated from β-galactosidase activity (blue color due to decomposition of 5-bromo-4-chloro-3-indolyl-β-D-galactopyranoside). Specifically, MAGI-CCR5 cells were suspended in DMEM medium containing 10% serum to prepare 5×10^4 cells/ml suspension. To each well of 96 well plate was inoculated 200 μl of the suspension, and the cells were cultivated at 37° C. overnight. The medium was removed by means of suction, and to the residue was added 100 μl of the above medium containing 0.32 μM of Test Compound and 100 μl of the above medium containing 300PFU of HIV-1 Ba-L cells. The final concentration of the test compound was 0.16 μM. The cells were cultivated at 37° C. for 2 days. The medium was removed by means of suction. To the residue was added 200 μl of cell fixative (PBS containing 1% formaldehyde and 0.2% glutaraldehyde), and the mixture was allowed to stand at room temperature for 5 minutes and washed twice with PBS. […] The number of blue cells was counted by microscope and defined as the number of cells infected with HIV-1.

Counter-ions that a name gives are not always drawn.

T1 sequence (P51681 whole entry): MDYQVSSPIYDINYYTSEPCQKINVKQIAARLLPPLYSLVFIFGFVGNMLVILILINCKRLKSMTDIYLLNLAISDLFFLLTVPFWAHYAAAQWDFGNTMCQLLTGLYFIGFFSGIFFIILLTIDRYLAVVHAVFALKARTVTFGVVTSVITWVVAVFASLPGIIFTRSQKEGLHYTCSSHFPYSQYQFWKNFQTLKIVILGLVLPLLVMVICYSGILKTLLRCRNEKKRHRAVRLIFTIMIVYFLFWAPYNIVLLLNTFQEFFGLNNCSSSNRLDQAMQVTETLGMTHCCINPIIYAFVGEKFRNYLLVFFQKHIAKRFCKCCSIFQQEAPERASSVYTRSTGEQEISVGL

On to `O=C(Nc1ccccc1)N(CCCN1CCC(Cc2ccccc2)CC1)c1ccccc1` [Example 1, N-[3-(4-Benzyl-1-piperidinyl)propyl]-N-phenyl-N′-phenylurea hydrochloride], for which the inhibition at 1 µM at human CCR5 came to 96%. Compound `O=C(Nc1ccc(Cl)cc1)N(CCCN1CCC(Cc2ccccc2)CC1)c1ccccc1` [Example 2, N-[3-(4-Benzyl-1-piperidinyl)propyl]-N′-(4-chlorophenyl)-N-phenylurea] registered a melting point of 101 to 103 °C. Still for that read-out and setting: to `O=C(NC1CCCCC1)N(CCCN1CCC(Cc2ccccc2)CC1)c1ccccc1` [Example 6, N-[3-(4-Benzyl-1-piperidinyl)propyl]-N′-cyclohexyl-N-phenylurea] belongs 106 to 108 °C. As to `CCCNC(=O)N(CCCN1CCC(Cc2ccccc2)CC1)c1ccccc1` [Example 7, N-[3-(4-Benzyl-1-piperidinyl)propyl]-N-phenyl-N′-propylurea], at human CCR5, the inhibition at 1 µM was 92%. Same read-out and setting: to `Cc1ccc(N(CCCN2CCC(Cc3ccccc3)CC2)C(=O)Nc2ccc(Cl)cc2)cc1` [Example 10, N-[3-(4-Benzyl-1-piperidinyl)propyl]-N′-(4-chlorophenyl)-N-(4-methylphenyl)urea hydrochloride] belongs 100%; to `O=C(Nc1ccc(Cl)cc1)N(CCCN1CCC(Cc2ccc(F)cc2)CC1)c1ccc(Cl)c(Cl)c1` [Example 12, N′-(4-Chlorophenyl)-N-(3,4-dichlorophenyl)-N-{3-[4-(4-fluorobenzyl)-1-piperidinyl]propyl}urea], 92%. Compound `O=C(Nc1cccc2ccccc12)N(CCCN1CCC(Cc2ccccc2)CC1)c1ccccc1` [Example 13, N-[3-(4-Benzyl-1-piperidinyl)propyl]-N′-(1-naphthyl)-N-phenylurea] registered a melting point of 124 to 127 °C. Moreover, the inhibition at 1 µM at human CCR5 came out at 67%.

Turning to `O=C(Nc1ccc(Cl)cc1)N(CCCN1CCC(Cc2ccc(S(=O)(=O)N3CCOCC3)cc2)CC1)c1ccccc1` [Example 71, N′-(4-Chlorophenyl)-N-(3-{4-[4-(4-morpholinylsulfonyl)benzyl]-1-piperidinyl}propyl)-N-phenylurea hydrochloride], the inhibition at 1 µM on human CCR5 stood at 98%. As to `CS(=O)(=O)c1ccc(CC2CCN(CCCN(C(=O)Nc3ccc(Cl)cc3)c3ccccc3)CC2)cc1.Cl` [Example 72, N′-(4-Chlorophenyl)-N-(3-{4-[4-(4-methylsulfonyl)benzyl]-1-piperidinyl}propyl)-N-phenylurea hydrochloride], the “Inhibition Rate (%) at 1.0 μM” value at human CCR5 worked out at 94%. As to `O=C(Nc1ccc(Cl)cc1)N(CCCN1CCC(Cc2ccccc2)CC1)c1ccccc1` [Example 76, N-[3-(4-Benzyl-1-piperidinyl)propyl]-N′-(4-chlorophenyl)-N-phenylurea hydrochloride], in the data set on HIV-1 Ba-L, the inhibition at 0.16 µM worked out at 98%.
